Assay results reported in publication PMC12263876, “DDX39B K63-linked ubiquitination mediated by TRIM28 promotes NSCLC metastasis by enhancing ECAD lysosomal degradation” (Signal Transduction and Targeted Therapy, 2025).

Target: T1, DDX39B (Homo sapiens, UniProt Q13838)
T1 construct: His-DDX39B
Experiment: SPR (KD […]); also BLI with biotinylated His-DDX39B (KD […]) and CETSA in NSCLC cells
Type: binding

T1 sequence (Q13838 2-428): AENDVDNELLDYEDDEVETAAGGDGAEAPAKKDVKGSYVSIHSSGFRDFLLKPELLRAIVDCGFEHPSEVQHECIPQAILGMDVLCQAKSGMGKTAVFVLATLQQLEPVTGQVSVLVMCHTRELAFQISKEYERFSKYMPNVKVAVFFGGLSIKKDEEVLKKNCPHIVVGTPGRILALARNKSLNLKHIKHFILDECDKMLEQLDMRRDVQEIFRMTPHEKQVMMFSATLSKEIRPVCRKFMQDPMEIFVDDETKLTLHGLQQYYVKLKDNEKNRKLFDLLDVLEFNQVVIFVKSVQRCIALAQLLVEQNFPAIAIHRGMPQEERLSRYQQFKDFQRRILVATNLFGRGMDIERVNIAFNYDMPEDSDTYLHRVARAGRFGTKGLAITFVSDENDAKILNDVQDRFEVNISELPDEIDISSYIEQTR

`C[C@H]1[C@H](OC(=O)CCC(=O)O)O[C@@H]2O[C@@]3(C)CC[C@H]4[C@H](C)CC[C@@H]1[C@@]24OO3` [artesunate] was tested, and the Kd was 3.23 µM.
